Source: patent US4927937A, “Pharmacologically active ε-valerolactams” (Chinese Academy of Medical Science, priority 1986, dated 1990)

Experiments:
[1] = animal tests, literature report; cited from earlier work
[2] = tested on: CCl4 intoxicated mice (SGPT); assay: Hepatoprotective action: SGPT of CCl4 intoxicated mice; assay type: in vivo, mouse (male Kunming strain); settings: 250 mg/kg × 2 orally at 8 h interval, 0.1% CCl4 10 ml/kg injected 24 h after second dose, 9 mice per group; P <0.01; control 1678 + 261
Description: Male Kunming strain mice weighing 18-22 grams were used throughout the experiments. The compounds to be tested were suspended in 5% Tween 80 and given orally by gavage. The vehicle of 5% Tween 80 solution was administered to control mice via the same route. In in vitro experiments, the compounds were dissolved in dimethylformamide and added directly into the incubation mixture.
Mice were divided into several groups. The control group was administered the vehicle. The other groups were given two doses (250 mg/kg) of the compound at an interval of 8 h, respectively. 10 ml/kg of 0.1% CCl4 in vegetable oil was injected in 24 h after the second administration of the compound. The mice were fasted for 16 h and sacrificed by decapitation. SGPT and liver lipids were determined. A piece of liver was processed into sections for pathological observation.

[3] = tested on: male rats, retrograde amnesia under hypoxia; assay: Retrograde amnesia (rat) under hypoxic conditions; assay type: in vivo; settings: 100 mg/kg p.o., hypoxia 3.8% oxygen, 15 animals per group
Description: The apparatus (39 cm long, 21 cm high, and 21 cm wide) consists of two compartments, one made of translucent plastic (29 cm long) and the other one painted black (10 cm long) It has a bottom of spaced metal grids which are connected to a stimulating device delivered 1.6 mA for 20 s.
Both compartments are connected via a door which can be closed.
Male rats (100-120 g body weight) will be placed individually in the large compartment and allowed to explore both compartments for 3 min.
Thereafter the animals are placed in the small (dark) compartment, the connecting door is closed and the foot shock is delivered. After that the animals are put in an air-tight cage which is prefused by a gas mixture containing 3.8% oxygen and 96.2% nitrogen.
24 hours later the rats are placed again in the bright compartment. The observation time is 3 min.
One experiment is performed in three groups of 15 animals each:
Group A: control group, not exposed to hypoxia
Group B: control group, receiving hypoxia after first training
Group C: treated animals, receiving hypoxia after first training.
Evaluation: the times the animals need to enter the dark compartment are measured in seconds. […]
The time difference between the control group B and the treated group C is calculated in percent (C-B=X%). X is considered to be measured for the potency of the antiamnestic effect of the substance tested.

Compound | spasmolytic activity [1] | SGPT units % X ± SE [2] | X (antiamnestic effect, C-B in percent of A-B) [3] [%]
C=CC(C)(C)c1cc2cc3c(cc2oc1=O)OC1(C)CCC(C(C)(C)O)OC1C3 (stereo not drawn) [Clausmarin A] | showed spasmolytic activity |  | 
CN1C=C(c2ccccc2)C(c2ccccc2)C(O)C1=O (stereo not drawn) [Example 1] |  | 739 + 196 units % | 11
